Experimental findings from patent US20240270762A1, “PENICILLIN-BINDING PROTEIN INHIBITORS” (priority 2021, published 2024) are described below.

Type in all cases: cell-based
In test [1] the test system is P. aeruginosa (ΔmexAB-oprM). Kind of test: Broth microdilution MIC in iron-depleted CAMHB (IDM). As to conditions: Pseudomonas aeruginosa; iron-depleted CAMHB (IDM); […]; read-out: Minimum inhibitory concentration, P. aeruginosa ΔmexAB-oprM.
In another test the test system is A. baumannii CDC-0083. Kind of test: microbe, parasite or virus in culture. The conditions noted are these: Acinetobacter baumannii, CDC0083, read-out: MIC, A. baumannii CDC-0083.
Test [2] has as its system B. humptydooensis ATCC BAA-2767. Kind of test: microbe, parasite or virus in culture. As to conditions: Burkholderia humptydooensis, ATCCBAA2767, read-out: Minimum inhibitory concentration (MIC), B. humptydooensis ATCC BAA-2767.
A further test has as its system P. aeruginosa ATCC 35151. Kind of test: microbe, parasite or virus in culture. The conditions noted are these: Pseudomonas aeruginosa, ATCC35151, read-out: Minimum inhibitory concentration, P. aeruginosa ATCC 35151.
Another test relates to P. aeruginosa CDC-0110. Kind of test: microbe, parasite or virus in culture. As to conditions: Pseudomonas aeruginosa, CDC0110, read-out: Minimum inhibitory concentration, P. aeruginosa CDC-0110.

Converted amounts (≈) assume the structure as drawn.

With `O=C(NCCCN1CCN(C(=O)NC(C(=O)N[C@H]2Cc3ccc(F)c(C(=O)O)c3OB2O)c2cc(F)c(O)c(O)c2Cl)C(=O)C1=O)c1cccc(O)c1F` (stereo partly drawn) [Example 406, (3R)-3-(2-(2-chloro-5-fluoro-3,4-dihydroxyphenyl)-2-(4.-(3-(2-fluoro-3-hydroxybenzamido)propyl)-2,3-dioxopiperazine-1-carboxamido)acetamido)-7-fluoro-2-hydroxy-3,4-dihydro-2H-benzo[e][1,2]oxaborinine-8-carboxylic acid], the MIC was less than 1 µg/mL in test [1]; less than 1 µg/mL in the test with A. baumannii CDC-0083; 8 to 16 µg/mL (≈ 10.3 to 20.6 µM) in test [2]; less than 1 µg/mL in the test with P. aeruginosa ATCC 35151; less than 1 µg/mL with P. aeruginosa CDC-0110.
With `O=C(NCCCN1CCN(C(=O)NC(C(=O)N[C@H]2Cc3ccc(F)c(C(=O)O)c3OB2O)c2cc(F)c(O)c(O)c2Cl)C(=O)C1=O)c1cc(O)ccc1F` (stereo partly drawn) [Example 407, (3R)-3-(2-(2-chloro-5-fluoro-3,4-dihydroxyphenyl)-2-(4-(3-(2-fluoro-5-hydroxybenzamido)propyl)-2,3-dioxopiperazine-1-carboxamido)acetamido)-7-fluoro-2-hydroxy-3,4-dihydro-2H-benzo[e][1,2]oxaborinine-8-carboxylic acid], the MIC was less than 1 µg/mL in test [1]; less than 1 µg/mL in the test with A. baumannii CDC-0083; 8 to 16 µg/mL (≈ 10.3 to 20.6 µM) in test [2]; less than 1 µg/mL with P. aeruginosa ATCC 35151; less than 1 µg/mL in the test on P. aeruginosa CDC-0110.
As to `O=C(NCCCN1CCN(C(=O)NC(C(=O)N[C@H]2Cc3ccc(F)c(C(=O)O)c3OB2O)c2cc(F)c(O)c(O)c2Cl)C(=O)C1=O)c1cc(O)ccc1Cl` (stereo partly drawn) [Example 408, (3R)-3-(2-(2-chloro-5-fluoro-3,4-dihydroxyphenyl)-2-(4-(3-(2-chloro-5-hydroxybenzamido)propyl)-2,3-dioxopiperazine-1-carboxamido)acetamido)-7-fluoro-2-hydroxy-3,4-dihydro-2H-benzo[e][1,2]oxaborinine-8-carboxylic acid], the MIC is less than 1 µg/mL in test [1]; less than 1 µg/mL in the test with A. baumannii CDC-0083; 8 to 16 µg/mL (≈ 10.1 to 20.1 µM) in test [2]; less than 1 µg/mL in the test on P. aeruginosa ATCC 35151; less than 1 µg/mL in the test on P. aeruginosa CDC-0110.
Regarding `O=C(NCCCN1CCN(C(=O)NC(C(=O)N[C@H]2Cc3ccc(F)c(C(=O)O)c3OB2O)c2cc(F)c(O)c(O)c2Cl)C(=O)C1=O)c1ccc(F)c(O)c1` (stereo partly drawn) [Example 409, (3R)-3-(2-(2-chloro-5-fluoro-3,4-dihydroxyphenyl)-2-(4-(3-(4-fluoro-3-hydroxybenzamido)propyl)-2,3-dioxopiperazine-1-carboxamido)acetamido)-7-fluoro-2-hydroxy-3,4-dihydro-2H-benzo[e][1,2]oxaborinine-8-carboxylic acid], the MIC in test [1] was less than 1 µg/mL; with A. baumannii CDC-0083 it was less than 1 µg/mL; in test [2], 8 to 16 µg/mL (≈ 10.3 to 20.6 µM); with P. aeruginosa ATCC 35151, less than 1 µg/mL; with P. aeruginosa CDC-0110, less than 1 µg/mL.
In the case of `O=C(NCCCN1CCN(C(=O)NC(C(=O)N[C@H]2Cc3ccc(F)c(C(=O)O)c3OB2O)c2cc(F)c(O)c(O)c2Cl)C(=O)C1=O)c1cc(O)cc(F)c1` (stereo partly drawn) [Example 410, (3R)-3-(2-(2-chloro-5-fluoro-3,4-dihydroxyphenyl)-2-(4-(3-(3-fluoro-5-hydroxybenzamido)propyl)-2,3-dioxopiperazine-1-carboxamido)acetamido)-7-fluoro-2-hydroxy-3,4-dihydro-2H-benzo[e][1,2]oxaborinine-8-carboxylic acid], the MIC was less than 1 µg/mL in test [1]; less than 1 µg/mL with A. baumannii CDC-0083; greater than 128 µg/mL in test [2]; less than 1 µg/mL with P. aeruginosa ATCC 35151; less than 1 µg/mL with P. aeruginosa CDC-0110.
In the case of `O=C(NCCCN1CCN(C(=O)NC(C(=O)N[C@H]2Cc3ccc(F)c(C(=O)O)c3OB2O)c2cc(F)c(O)c(O)c2Cl)C(=O)C1=O)c1ccc(F)c(O)c1F` (stereo partly drawn) [Example 411, (3R)-3-(2-(2-chloro-5-fluoro-3,4-dihydroxyphenyl)-2-(4-(3-(2,4-difluoro-3-hydroxybenzamido)propyl)-2,3-dioxopiperazine-1-carboxamido)acetamido)-7-fluoro-2-hydroxy-3,4-dihydro-2H-benzo[e][1,2]oxaborinine-8-carboxylic acid], the MIC was less than 1 µg/mL in test [1]; 8 to 16 µg/mL (≈ 10.1 to 20.1 µM) in the test with A. baumannii CDC-0083; 2 to 4 µg/mL (≈ 2.51 to 5.03 µM) in test [2]; less than 1 µg/mL with P. aeruginosa ATCC 35151; less than 1 µg/mL in the test with P. aeruginosa CDC-0110.
For the molecule `O=C(NCCCN1CCN(C(=O)NC(C(=O)N[C@H]2Cc3ccc(F)c(C(=O)O)c3OB2O)c2cc(F)c(O)c(O)c2Cl)C(=O)C1=O)c1c(F)ccc(O)c1F` (stereo partly drawn) [Example 413, (3R)-3-(2-(2-chloro-5-fluoro-3,4-dihydroxyphenyl)-2-(4-(3-(2,6-difluoro-3-hydroxybenzamido)propyl)-2,3-dioxopiperazine-1-carboxamido)acetamido)-7-fluoro-2-hydroxy-3,4-dihydro-2H-benzo[e][1,2]oxaborinine-8-carboxylic acid], the MIC was less than 1 µg/mL in test [1]; 2 to 4 µg/mL (≈ 2.51 to 5.03 µM) in the test with A. baumannii CDC-0083; 2 to 4 µg/mL (≈ 2.51 to 5.03 µM) in test [2]; less than 1 µg/mL in the test on P. aeruginosa ATCC 35151; less than 1 µg/mL in the test on P. aeruginosa CDC-0110.
For `O=C(NCCCN1CCN(C(=O)NC(C(=O)N[C@H]2Cc3ccc(F)c(C(=O)O)c3OB2O)c2cc(F)c(O)c(O)c2Cl)C(=O)C1=O)c1c(F)ccc(O)c1Cl` (stereo partly drawn) [Example 414, (3R)-3-(2-(2-chloro-5-fluoro-3,4-dihydroxyphenyl)-2-(4-(3-(2-chloro-6-fluoro-3-hydroxybenzamido)propyl)-2,3-dioxopiperazine-1-carboxamido)acetamido)-7-fluoro-2-hydroxy-3,4-dihydro-2H-benzo[e][1,2]oxaborinine-8-carboxylic acid], the MIC was less than 1 µg/mL in test [1]; 2 to 4 µg/mL (≈ 2.46 to 4.92 µM) in the test on A. baumannii CDC-0083; 2 to 4 µg/mL (≈ 2.46 to 4.92 µM) in test [2]; less than 1 µg/mL with P. aeruginosa ATCC 35151; less than 1 µg/mL in the test with P. aeruginosa CDC-0110.
Consider `O=C(NCCCN1CCN(C(=O)NC(C(=O)N[C@H]2Cc3ccc(F)c(C(=O)O)c3OB2O)c2cc(F)c(O)c(O)c2Cl)C(=O)C1=O)c1cc(O)c(F)c(O)c1F` (stereo partly drawn) [Example 415, (3R)-3-(2-(2-chloro-5-fluoro-3,4-dihydroxyphenyl)-2-(4-(3-(2,4-difluoro-3,5-dihydroxybenzamido)propyl)-2,3-dioxopiperazine-1-carboxamido)acetamido)-7-fluoro-2-hydroxy-3,4-dihydro-2H-benzo[e][1,2]oxaborinine-8-carboxylic acid], for which the MIC in test [1] was less than 1 µg/mL; in the test with A. baumannii CDC-0083, 2 to 4 µg/mL (≈ 2.46 to 4.93 µM); in test [2] it was 8 to 16 µg/mL (≈ 9.85 to 19.7 µM); in the test with P. aeruginosa ATCC 35151, less than 1 µg/mL; in the test on P. aeruginosa CDC-0110, less than 1 µg/mL.
For `O=C(NCCCN1CCN(C(=O)NC(C(=O)N[C@H]2Cc3ccc(F)c(C(=O)O)c3OB2O)c2cc(F)c(O)c(O)c2Cl)C(=O)C1=O)c1cc(O)c(F)c(O)c1` (stereo partly drawn) [Example 416, (3R)-3-(2-(2-chloro-5-fluoro-3,4-dihydroxyphenyl)-2-(4-(3-(4-fluoro-3,5-dihydroxybenzamido)propyl)-2,3-dioxopiperazine-1-carboxamido)acetamido)-7-fluoro-2-hydroxy-3,4-dihydro-2H-benzo[e][1,2]oxaborinine-8-carboxylic acid], the MIC (in test [1]; in the test with A. baumannii CDC-0083; in test [2]; in the test on P. aeruginosa ATCC 35151; with P. aeruginosa CDC-0110) was less than 1 µg/mL in each case.
Consider `O=C(NCCCN1CCN(C(=O)NC(C(=O)N[C@H]2Cc3ccc(F)c(C(=O)O)c3OB2O)c2cc(F)c(O)c(O)c2Cl)C(=O)C1=O)c1ccc(O)c(F)c1Cl` (stereo partly drawn) [Example 418, (3R)-3-(2-(4-(3-(2-chloro-3-fluoro-4-hydroxybenzamido)propyl)-2,3-dioxopiperazine-1-carboxamido)-2-(2-chloro-5-fluoro-3,4-dihydroxyphenyl)acetamido)-7-fluoro-2-hydroxy-3,4-dihydro-2H-benzo[e][1,2]oxaborinine-8-carboxylic acid], for which the MIC was less than 1 µg/mL in test [1]; greater than 128 µg/mL with A. baumannii CDC-0083; less than 1 µg/mL in test [2]; less than 1 µg/mL in the test with P. aeruginosa ATCC 35151; less than 1 µg/mL in the test on P. aeruginosa CDC-0110.
For the molecule `O=C(NCCCN1CCN(C(=O)NC(C(=O)N[C@H]2Cc3ccc(F)c(C(=O)O)c3OB2O)c2cc(F)c(O)c(O)c2Cl)C(=O)C1=O)c1ccc(O)c(Cl)c1F` (stereo partly drawn) [Example 419, (3R)-3-(2-(4-(3-(3-chloro-2-fluoro-4-hydroxybenzamido)propyl)-2,3-dioxopiperazine-1-carboxamido)-2-(2-chloro-5-fluoro-3,4-dihydroxyphenyl)acetamido)-7-fluoro-2-hydroxy-3,4-dihydro-2H-benzo[e][1,2]oxaborinine-8-carboxylic acid], the MIC in test [1] was less than 1 µg/mL; in the test on A. baumannii CDC-0083 it was greater than 128 µg/mL; in test [2] it was 2 to 4 µg/mL (≈ 2.46 to 4.92 µM); in the test on P. aeruginosa ATCC 35151, less than 1 µg/mL; with P. aeruginosa CDC-0110, less than 1 µg/mL.
On to `O=C(NCCCN1CCN(C(=O)NC(C(=O)N[C@H]2Cc3ccc(F)c(C(=O)O)c3OB2O)c2cc(F)c(O)c(O)c2Cl)C(=O)C1=O)c1c(F)cc(O)cc1Cl` (stereo partly drawn) [Example 421, (3R)-3-(2-(2-chloro-5-fluoro-3,4-dihydroxyphenyl)-2-(4-(3-(2-chloro-6-fluoro-4-hydroxybenzamido)propyl)-2,3-dioxopiperazine-1-carboxamido)acetamido)-7-fluoro-2-hydroxy-3,4-dihydro-2H-benzo[e][1,2]oxaborinine-8-carboxylic acid], for which the MIC was less than 1 µg/mL in test [1]; greater than 128 µg/mL in the test with A. baumannii CDC-0083; 2 to 4 µg/mL (≈ 2.46 to 4.92 µM) in test [2]; less than 1 µg/mL with P. aeruginosa ATCC 35151; less than 1 µg/mL with P. aeruginosa CDC-0110.
